Measurements taken from ChEMBL document CHEMBL3352229, “20(S)-Ginsenoside Rh2 as aldose reductase inhibitor from Panax ginseng” (Bioorg Med Chem Lett, 2014).

Target: Aldo-keto reductase family 1 member B1 (Homo sapiens, UniProt P15121)
Test: Inhibition of human recombinant aldose reductase using DL-glyceraldehyde, HRAR and beta-NADPH incubated for 10 mins by spectrophotometry

Compound | IC50 [µM]
CC(C)=CCC[C@@](C)(O)[C@H]1CC[C@]2(C)[C@@H]1[C@H](O)C[C@@H]1[C@@]3(C)CC[C@H](O[C@@H]4O[C@H](CO)[C@@H](O)[C@H](O)[C@H]4O[C@@H]4O[C@H](CO)[C@@H](O)[C@H](O)[C@H]4O)C(C)(C)[C@@H]3CC[C@]12C | > 200
CC(C)=CCC[C@@](C)(O)[C@H]1CC[C@]2(C)[C@@H]1[C@H](O)C[C@@H]1[C@@]3(C)CC[C@H](O[C@@H]4O[C@H](CO)[C@@H](O)[C@H](O)[C@H]4O)C(C)(C)[C@@H]3CC[C@]12C | > 200
CC(C)=CCC[C@](C)(O)[C@H]1CC[C@@]2(C)[C@@H]1[C@@H](O)C[C@@H]1[C@@]3(C)CC[C@H](O)C(C)(C)[C@@H]3[C@@H](O[C@@H]3O[C@H](CO)[C@@H](O)[C@H](O)[C@H]3O[C@@H]3O[C@H](CO)[C@@H](O)[C@H](O)[C@H]3O)C[C@]12C | > 200
CC(C)=CCC[C@](C)(O[C@@H]1O[C@H](CO)[C@@H](O)[C@H](O)[C@H]1O)[C@H]1CC[C@]2(C)[C@@H]1[C@H](O)C[C@@H]1[C@@]3(C)CC[C@H](O)C(C)(C)[C@@H]3CC[C@]12C | > 200
CC(C)=CCC[C@](C)(O)[C@H]1CC[C@]2(C)[C@@H]1[C@H](O)C[C@@H]1[C@@]3(C)CC[C@H](O[C@@H]4O[C@H](CO)[C@@H](O)[C@H](O)[C@H]4O[C@@H]4O[C@H](CO)[C@@H](O)[C@H](O)[C@H]4O)C(C)(C)[C@@H]3CC[C@]12C | > 200
CC(C)=CCCC(C)(O)[C@H]1CC[C@]2(C)[C@@H]1[C@H](O)C[C@@H]1[C@@]3(C)CC[C@H](O[C@@H]4O[C@H](CO)[C@@H](O)[C@H](O)[C@H]4O)C(C)(C)[C@@H]3CC[C@]12C (mixture of isomers) | > 200
CC(C)=CCC[C@](C)(O)[C@H]1CC[C@]2(C)[C@@H]1[C@H](O)C[C@@H]1[C@@]3(C)CC[C@H](O)C(C)(C)[C@@H]3[C@@H](O[C@@H]3O[C@H](CO)[C@@H](O)[C@H](O)[C@H]3O)C[C@]12C [GINSENOSIDE RH1] | > 200
CC(C)=CCC[C@](C)(O)[C@H]1CC[C@]2(C)[C@@H]1[C@H](O)C[C@@H]1[C@@]3(C)CC[C@H](O[C@@H]4O[C@H](CO)[C@@H](O)[C@H](O)[C@H]4O)C(C)(C)[C@@H]3CC[C@]12C [GINSENOSIDE RH2] | 147
